Experimental data from patent US12357565B2, “Ocular implant containing a tyrosine kinase inhibitor” (Ocular Therapeutix, Inc., priority 2020, dated 2025).

How the values were obtained:
[1] = Rugo et al. 2005, patients; cited from earlier work
[2] = 1.25 mg dose, rabbits (Sinapis et al., 2011); cited from earlier work
[3] = system: VEGF-induced vascular leakage; assay: VEGF challenge in rabbits: vascular leakage scored by fluorescein angiography; type: in vivo; conditions: rabbit; 1.25 mg Avastin® alone (group 3)

Molecule	Clearance half-life (t1/2) [1]	Half-life [2]	Time after which vascular leakage re-occurred (effect lasted until) [3]
CNC(=O)c1ccccc1Sc1ccc2c(/C=C/c3ccccn3)n[nH]c2c1 [axitinib, N-methyl-2-[3-((E)-2-pyridin-2-yl-vinyl)-1H-indazol-6-ylsulfanyl]-benzamide]	a few hours		
Avastin®: anti-VEGF therapeutic, 1.25 mg intravitreal		6.6 days	3 months
